This note sets out measurements from patent US20090192327A1, “METHODS AND COMPOSITIONS FOR INHIBITING BIOFILMS” (Sequoia Sciences, Inc., priority 2004, published 2009).

In test [1] the test system is Pseudomonas aeruginosa. Description: Minimum inhibitory concentration (NCCLS broth microdilution). The note with it: LB media with 0.2% glucose; 35° C. for 20-24 hours. Type of test: cell-based. The protocol:
The minimum inhibitory concentrations (MICs) for several of the specific biofilm inhibitors described herein were determined against several targets, including P. aeruginosa, E. coli, and Staphylococcus aureus. The MICs of the biofilm inhibitors were measured using the reference broth microdilution method recommended by the National Committee for Clinical Laboratory Standards (NCCLS). […] In each assay, positive and negative controls were employed, wherein the positive control included an antimicrobial agent with a known potency range that was used to ensure proper assay performance. The negative control, generally, included the solvent in which the test compounds were dissolved. In this example, the wells correlating to the negative controls included ethanol (without any biofilm inhibitors). […] Thus, each well contained a final volume of approximately 200 μl (not including the volume of the concentrated inhibitor). […] After bacterial inoculation and loading of test and control samples, the plate was incubated in an ambient air environment at 35° C. for 20-24 hours. The plate was subsequently rinsed, stained, and analyzed in accordance with the procedures described in Example 1. […] The minimum inhibitory concentrations were calculated as the lowest inhibitor concentration at which biofilm inhibition was observed.
On the technique in general: In broth dilution the organism is exposed to a series of concentrations in liquid medium.

In test [2] the test system is Pseudomonas aeruginosa. As to the kind of experiment: Microtiter plate biofilm inhibition assay (crystal violet). The note with it: 10 μg/ml; LB media with 0.2% glucose; 24 hours at room temperature; average of three wells. Type of test: cell-based. On the procedure:
A microtiter plate assay was used to quantitatively measure the effect each tested compound had on the ability of bacteria to form a biofilm. In this example, a concentrated solution of each compound tested was loaded separately into three separate wells of a polystyrene microtiter plate. In addition, each assay included triplicate wells correlating to negative and positive controls. For the positive controls, biofilm inhibitors of known activity were used, whereas no inhibitors were added to wells correlating to negative controls. […] Thus, each well contained a final volume of approximately 200 μl (not including the volume of the concentrated inhibitor). […] The microtiter plates were then placed on a shaker for 24 hours at room temperature. After the 24 hour incubation period, the microtiter plate was removed from the shaker, rinsed, and stained. During the rinsing step, the test compound, media, and bacterial inoculum solution was drained from the plate, approximately 300 μl of 0.1M phosphate buffered saline (PBS) was added to each well, which was subsequently drained from the plate. The rinsing step removed any suspended cells from the assay. 0.1% crystal violet stain was added to each well for approximately 20 minutes. Next, the crystal violet solution was drained from the microtiter plate. The plate was rinsed with PBS as described above four (4) times to remove any excess stain from the plate. Following the PBS rinsing steps, the plate was eluted with 250 μl/well of ethanol, which improved the detection of the stain. The plate was immediately analyzed spectrophotometrically at 540 nm using a microtiter plate reader. The inhibitory effect each compound had on the bacteria's ability to form a biofilm on the surface of each well was determined as follows: The absorbance values observed for each set of three (3) wells correlating with a test compound or control were averaged. The average absorbance value for each test compound was compared to the average absorbance value of the negative control (the positive control was employed to verify proper assay function). In general, biofilm inhibition activity is inversely proportional to absorbance values, whereby, for example, low absorbance values correlate with significant inhibition activity and high absorbance values correlate with small or no inhibition activity. The approximate percent inhibition observed for each compound was calculated by comparing the average absorbance value for each test compound to the average absorbance value for the negative controls. Table 2 summarizes the average percent inhibition observed for the tested compounds listed against biofilms generated by Pseudomonas aeruginosa.

Test [3] concerns Staphylococcus aureus. As to the kind of experiment: Minimum inhibitory concentration (NCCLS broth microdilution). Type of test: cell-based. Conditions: LB media with 0.2% glucose; 35° C. for 20-24 hours. On the procedure: (§1) The minimum inhibitory concentrations (MICs) for several of the specific biofilm inhibitors described herein were determined against several targets, including P. aeruginosa, E. coli, and Staphylococcus aureus. The MICs of the biofilm inhibitors were measured using the reference broth microdilution method recommended by the National Committee for Clinical Laboratory Standards (NCCLS).
(§2) […]. The negative control, generally, included the solvent in which the test compounds were dissolved. In this example, the wells correlating to the negative controls included ethanol (without any biofilm inhibitors).
(§3) In this example, 150 μl of sterile media was added to each well (LB media with 0.2% glucose), along with appropriate volumes of concentrated solutions of the inhibitors to be tested, followed by 50 μl of bacterial inoculum. Thus, each well contained a final volume of approximately 200 μl (not including the volume of the concentrated inhibitor). […]. The plate was subsequently rinsed, stained, and analyzed in accordance with the procedures described in Example 1.
(§4) Tables 7, 8, and 9 summarize the data observed and, specifically, the MICs calculated for the several compounds referenced therein against P. aeruginosa, E. coli, and S. aureus, respectively. The minimum inhibitory concentrations were calculated as the lowest inhibitor concentration at which biofilm inhibition was observed.

Test [4] relates to P. aeruginosa. Conditions: 10 μg/mL. On the procedure: In general, flow cell analysis begins by inoculating a microorganism into test and control flow cells along with the appropriate growth media (which may vary depending upon the organism involved). The microorganisms are maintained in the flow cells until they have produced biofilms having the desired coverage and thickness. Thereafter, the test flow cells are treated with appropriate concentrations of test inhibitors. […] Such negative controls may be used as reference points when measuring biofilm inhibition activity.
After the appropriate flow cells are treated with the test inhibitors, Live/Dead stain is applied to each flow cell for approximately 45 minutes. Any currently-available Live/Dead stain may be employed in this procedure, such as LIVE BacLight™ Bacterial Gram stain (Molecular Probes, Inc., Eugene, Oreg., USA). The biofilm is subsequently rinsed with sterile media to remove excess stain, and the sample is transferred to a confocal microscope for imaging. The Live/Dead stain differentially stains the bacterial cells with green for Live and red for Dead. In a flow cell environment, it is generally understood that bacteria require the presence of biofilms to propagate. Accordingly, the activity of a biofilm inhibitor may be indirectly measured by comparing the number of live bacterial cells included in a flow cell that contained a test inhibitor to that of a negative control.
The negative control flow cells included the inoculum in LB media with 0.2% glucose without any inhibitors. […] The test and control cells were subsequently stained and analyzed as described above.
In this example, the number of live colony forming units (CFU) detected in the sample flow cells were compared to that of the negative control to indirectly measure biofilm inhibition.

The test system of test [5] is Escherichia coli. Description: Minimum inhibitory concentration (NCCLS broth microdilution). The note with it: LB media with 0.2% glucose; 35° C. for 20-24 hours. Type of test: cell-based. The protocol: as §1, §2, §3, §4
Test [6] deals with Pseudomonas aeruginosa strain PAO 1. As to the kind of experiment: Rotating disk reactor biofilm test in combination with tobramycin. The class given is cell-based. The note with it: 48 hours biofilm; compound 110 approximately 100 μg/mL for 24 hours; tobramycin 100 μg/mL for two hours; polystyrene coupons. The protocol:
In this example, compound 110 was tested for biofilm inhibition with Pseudomonas aeruginosa in combination with Tobramycin. Specifically, biofilm formation of P. aeruginosa was evaluated using a standardized biofilm method with a rotating disk reactor (RDR), which is also known as “ASTM Standard Method #E-2196-02.” The rotating disk reactor consisted of a one-liter glass beaker fitted with a drain spout. The bottom of the vessel contained a magnetically driven rotor with six 1.27 cm diameter coupons constructed from polystyrene. The rotor consisted of a star-head magnetic stir bar upon which a disk was affixed to hold the coupons. The vessel (with the stir bar) was placed on a stir plate and rotated to provide fluid shear. A nutrient solution (AB Trace Medium with 0.3 mM glucose, see Table 5 below for specific formulation) was added through a stopper in the top of the reactor at a flow rate of 5 mL/min. The reactor volume was approximately 180 mL. At a volume of 180 mL, the residence time of the reactors was 36 minutes. The reactors were operated at room temperature (c.a. 26° C.). In this example, two RDRs were operated in parallel with one receiving compound 110 and the other serving as an untreated control. […] The plates were incubated for 24 hours at 37° C. before colony forming units (CFU) were determined.

Where [7] appears, read: live CFU compared to negative control flow cell.

Where “and” joins values, the source holds several entries; their conditions need not be identical. Identical values can stand only once. Like-named read-outs stand apart in the source and are kept apart here. Where only a bound is given, the exact number is not on record here.

Consider `C[C@@H]1[C@H]2C3=CC[C@@H]4[C@@]5(C)CC[C@H](OC(=O)/C=C\c6ccc(O)cc6)C(C)(C)[C@@H]5CC[C@@]4(C)[C@]3(C)CC[C@@]2(C(=O)O)CC[C@]1(C)O` (relative stereo) [Compound 188, 3β-O-cis-p-coumaroyl-20β-hydroxy-12-ursen-28-oic acid], for which the “MIC (μg/mL) - Pseudomonas aeruginosa” value in test [1] is more than 10 µg/mL.

For the compound `C[C@H]1[C@H](CO)C[C@@H](C(=O)O)C2CC[C@]3(C)C(=CCC4[C@@]5(C)CC[C@H](O)C(C)(C)C5CC[C@]43C)[C@@H]21` (some centres unmarked) [Compound 99], the “MIC (μg/mL) - Pseudomonas aeruginosa” value in test [1] was more than 10 µg/mL. In addition, the “Biofilm Inhibition- Pseudomonas aeruginosa” value in test [2] is 30%. Besides, the “MIC (μg/mL) - Staphylococcus aureus” value in test [3] was more than 32 µg/mL.

For `CC1(C)C[C@@H](C(=O)O)C2CCC3C(=CCC4C3(C)CCC3C4(C)C[C@@H](O)[C@H](O)C3(C)C)[C@@H]2C1` (some centres unmarked) [Compound 107], the “MIC (μg/mL) - Pseudomonas aeruginosa” value in test [1] is more than 10 µg/mL. Besides, in test [2], the “Biofilm Inhibition- Pseudomonas aeruginosa” value was determined as 46%.

Consider `COc1cc(/C=C/C(=O)OC2C(O)CC3(C)C(CCC4(C)C3CC=C3C5C(C)C(C)CCC5(C(=O)O)CCC34C)C2(C)C)ccc1O` (stereo not drawn) [Compound 116, 3α-O-trans-feruloyl-2α-hydroxy-12-ursen-28-oic acid], for which, in test [1], the “MIC (μg/mL) - Pseudomonas aeruginosa” value was more than 10 µg/mL. Also, in test [4] (LB media with 0.2% glucose, applied approximately 4 hours after inoculum, average), the “Flow Cell with Compound 116 (CFU), Average” value was 1.76E+06 CFU. Moreover, the “Flow Cell with Compound 116 (CFU), single flow cell” value in test [4] (LB media with 0.2% glucose, applied approximately 4 hours after inoculum, individual values) is 2.06E+06 CFU and 1.46E+06 CFU. Moreover, in test [4] (setting [7]), the “Log Reduction” value was 0.28 and the “Percent Reduction” value is recorded as 47%. The “Percent Reduction” value in test [4] (live CFU compared to negative control flow cell, listed as compound 116) was approximately 47%.

As for `C[C@H]1[C@H](C)CC[C@]2(C(=O)O)CCC3C(=CCC4[C@@]3(C)CCC3C(C)(C)[C@@H](OC(=O)/C=C/c5ccc(O)cc5)[C@H](O)C[C@@]34C)[C@H]12` (some centres unmarked) [Compound 189], the “MIC (μg/mL) - Pseudomonas aeruginosa” value in test [1] was more than 10 µg/mL. The “Biofilm Inhibition- Pseudomonas aeruginosa” value in test [2] is on record as 35%.

`C[C@@H]1C[C@@H](C(=O)O)C2CC[C@]3(C)C(=CCC4[C@@]5(C)C[C@@H](O)[C@H](O)C(C)(C)C5CC[C@]43C)[C@@H]2[C@]1(C)O` (some centres unmarked) [Compound 192]: in test [1], the “MIC (μg/mL) - Pseudomonas aeruginosa” value is more than 10 µg/mL. Moreover, the “Biofilm Inhibition- Pseudomonas aeruginosa” value in test [2] amounted to 32%.

Regarding `C[C@@H]1[C@H]2C3=CCC4[C@@]5(C)CC[C@H](O)C(C)(C)C5CC[C@@]4(C)[C@]3(C)CC[C@@]2(C(=O)O)CC[C@]1(C)O` (some centres unmarked) [Compound 195], in test [1], the “MIC (μg/mL) - Pseudomonas aeruginosa” value is more than 10 µg/mL. Moreover, the “Biofilm Inhibition- Pseudomonas aeruginosa” value in test [2] is on record as 25%. For the same compound, the “MIC (μg/mL) - Staphylococcus aureus” value in test [3] was more than 8 µg/mL.

As to `C[C@@H]1CC[C@]2(C(=O)O)CC[C@]3(C)C(=CCC4[C@@]5(C)C[C@@H](O)[C@H](O)C(C)(C)C5CC[C@]43C)[C@@H]2[C@]1(C)O` (some centres unmarked) [Compound 203], the “MIC (μg/mL) - Pseudomonas aeruginosa” value in test [1] is more than 10 µg/mL. In addition, the “Biofilm Inhibition- Pseudomonas aeruginosa” value in test [2] is given as 43%.

In the case of `CC1(C)CC[C@]2(C(=O)O)CC[C@]3(C)C(=CC[C@@H]4[C@@]5(C)CC[C@H](O)C(C)(C)[C@@H]5CC[C@]43C)[C@@H]2C1` [Compound 225], the “MIC (μg/mL) - Escherichia coli” value in test [5] is more than 10 µg/mL.

In the case of `NC[C@H]1O[C@H](O[C@H]2[C@H](O)[C@@H](O[C@H]3O[C@H](CO)[C@@H](O)[C@H](N)[C@H]3O)[C@H](N)C[C@@H]2N)[C@H](N)C[C@@H]1O` [Tobramycin, reference compound], in test [6], the “CFU (in log 10)” value is recorded as 6.1 CFU (in log 10).
